Assay results: patent US4118482A (priority 1977, dated 1978)
Read-outs that look alike come from different tables or passages of the source. Numbered stars: 1 amine (or outer) side, 2 acyl side, 3 side chain; on linkers, the order of the positions; unused ones are H or OH. Bridge positions count the residues as written; N and C are the ends. Square brackets hold non-standard residues; d marks the D form. Peptide text beside a SMILES is read from it. I, II: the chains in the order shown. Actinocin(9to1) = Cc1c2oc3c(C)ccc(C(=O)[*:1])c3nc-2c(C(=O)[*:2])c(N)c1=O; NMeV = CN[CH](C(=O)O)C(C)C; Aze = O=C(O)[CH]1CCN1; Sar = CNCC(=O)O

Experiments:
[1] = test system: advanced Ridgeway osteogenic sarcoma; conditions: cited from earlier work
ADVANCED P388 LEUKEMIA = experiment: Advanced P388 leukemia in mice, treatment Q4D x 3 at days 5, 9, 13; type: in vivo; conditions: Q4D x 3 days 5, 9, 13, advanced P388; for SURVIAL TIME MEDIAN: controls 10 days
Excerpt: (§1) The National Cancer Institute conducted a screening test on samples of both Azetomicin I (3' prolyl, 3' azet) and Azetomicin II (3', 3' azet) as well as on Dactinomycin (3', 3' prolyl) that is also known as Actinomycin D or C1. The Azetomicin and Dactinomycin molecules are identical, with the exception of the 3' amino acid position on the peptides, wherein the 3' positions, in the case of Dactinomycin are both prolyl; in the case of the Azetomicin I are prolyl and azetidine-2-carboxyl; and in the cae of Azetomicin II are both azetidine-2-carboxyl.
ADVANCED P388 LEUKEMIA : Q4D × 3 AT DAYS 5, 9, 13 TREATMENT

[2] = Storage stability in aqueous solution; type: physicochemical; conditions: 0°-25° C, pH range of 5-8, maintained in the dark
Description: The major products of interest were determined to be Azetomicin I and Azetomycin II. They were stable after storage at 0°-25° C in aqueous solution in the pH range of 5-8 for at least 5 days when maintained in the dark.

[3] = test system: Bacillus subtilis, Staphylococcus aureus and Staphylococcus albus; experiment: Inhibition of bacterial growth (cross section of gram-positive and gram-negative bacteria); type: cell-based
[4] = Toxicity per mg compared with Actinomicin D
P388 leukemia = P388 leukemia in mice, treatment QD at days 1-9 (National Cancer Institute screen); type: in vivo; conditions: for 5 ILS* (increased life span) / 60 DAY "CURES" / SURVIAL TIME MEDIAN: QD days 1-9, P388 mice; for SURVIAL TIME MEDIAN: controls 10 days
Excerpt: as §1
P 388 LEUKEMIA : QD AT DAYS 1-9 TREATMENT

Rous sarcoma virus = experiment: Development of visible tumors in chicks infected with Rous sarcoma virus, single injection; type: in vivo; conditions: injected once; compared with untreated or saline injected controls
Description: In another test, both Azetomicin I and Azetomicin II, were injected once into chicks infected with Rous sarcoma virus. The development of visible tumors was decreased by over 80% as compared with untreated or saline injected controls.

[5] = schedule day 12, data of Southern Research Institute

Compound: S=P(N1CC1)(N1CC1)N1CC1 [THIO-TEPA]
- "CURES" (Number/Total) [1, 5]: 0/10
- REGRESSION 50+%-PARTIAL (Number/Total) [1, 5]: 0/10
- REGRESSION COMPLETE (Number/Total) [1, 5]: 0/10

Compound: MITHRAMYCIN
- "CURES" (Number/Total) [1, 5]: 0/7
- REGRESSION 50+%-PARTIAL (Number/Total) [1, 5]: 0/7
- REGRESSION COMPLETE (Number/Total) [1, 5]: 0/7

Compound: Nc1ccn([C@@H]2O[C@H](CO)[C@@H](O)[C@@H]2O)c(=O)n1 [ARA-C]
- "CURES" (Number/Total) ([1]; schedule days 12,12,20(q3h)): 0/10
- REGRESSION 50+%-PARTIAL (Number/Total) ([1]; schedule days 12,12,20(q3h)): 7/10
- REGRESSION COMPLETE (Number/Total) ([1]; schedule days 12,12,20(q3h)): 3/10

Compound: S=c1nc[nH]c2nc[nH]c12 [MERCAPTOPURINE]
- "CURES" (Number/Total) ([1]; schedule days 12-22): 0/10
- REGRESSION 50+%-PARTIAL (Number/Total) ([1]; schedule days 12-22): 9/10
- REGRESSION COMPLETE (Number/Total) ([1]; schedule days 12-22): 6/10

Compound: O=NN(CCCl)C(=O)NC1CCCCC1 [CCNU]
- "CURES" (Number/Total) [1, 5]: 0/8
- REGRESSION 50+%-PARTIAL (Number/Total) [1, 5]: 0/8
- REGRESSION COMPLETE (Number/Total) [1, 5]: 0/8

Compound: Cc1c2oc3c(C)ccc(C(=O)NC4C(=O)NC(C(C)C)C(=O)N5CCC5C(=O)N(C)CC(=O)N(C)C(C(C)C)C(=O)OC4C)c3nc-2c(C(=O)NC2C(=O)NC(C(C)C)C(=O)N3CCC3C(=O)N(C)CC(=O)N(C)C(C(C)C)C(=O)OC2C)c(N)c1=O (centres unmarked) [AZETOMICIN-II, Azetomicin II] (I: TV[Aze][Sar][NMeV] / II: TV[Aze][Sar][NMeV]; ester I:1-I:C, II:1-II:C; linker I:N-II:N via Actinocin(9to1); configuration not given here)
- 5 ILS* (increased life span) (ADVANCED P388 LEUKEMIA; 0.6 Mg/Kg/Inj.): 150%
- 60 DAY "CURES" (ADVANCED P388 LEUKEMIA; 0.6 Mg/Kg/Inj.): 0
- SURVIAL TIME MEDIAN (ADVANCED P388 LEUKEMIA; 0.6 Mg/Kg/Inj.): 25 days
- time stable after storage in aqueous solution [2]: at least 5 days
- activity against bacterial growth relative to Actinomicin D [3]: 50%
- toxicity/mg. compared with Actinomicin D [4]: substantially less toxic/mg.
- 5 ILS* (increased life span) (P388 leukemia; 0.05 Mg/Kg/Inj.): 125%
- 60 DAY "CURES" (P388 leukemia; 0.05 Mg/Kg/Inj.): 0%
- SURVIAL TIME MEDIAN (P388 leukemia; 0.05 Mg/Kg/Inj.): 22.5 days
- 5 ILS* (increased life span) (P388 leukemia; 0.1 Mg/Kg/Inj.): 130%
- 60 DAY "CURES" (P388 leukemia; 0.1 Mg/Kg/Inj.): 12%
- SURVIAL TIME MEDIAN (P388 leukemia; 0.1 Mg/Kg/Inj.): 23 days
- activity compared with Dactinomycin (summary of Table I) (P388 leukemia; P388 leukemia mice, Table I): roughly comparable in activity to Dactinomycin
- decrease of development of visible tumors (Rous sarcoma virus): over 80%

Compound: COc1cccc2c1C(=O)c1c(O)c3c(c(O)c1C2=O)C[C@@](O)(C(C)=O)C[C@@H]3O[C@H]1C[C@H](N)[C@H](O)[C@H](C)O1 [DAUNOMYCIN]
- "CURES" (Number/Total) ([1]; schedule days 12-17): 0/12
- REGRESSION 50+%-PARTIAL (Number/Total) ([1]; schedule days 12-17): 9/12
- REGRESSION COMPLETE (Number/Total) ([1]; schedule days 12-17): 3/12

Compound: COc1cccc2c1C(=O)c1c(O)c3c(c(O)c1C2=O)C[C@@](O)(C(=O)CO)C[C@@H]3O[C@H]1C[C@H](N)[C@H](O)[C@H](C)O1 [ADRIAMYCIN]
- "CURES" (Number/Total) [1, 5]: 0/8
- REGRESSION 50+%-PARTIAL (Number/Total) [1, 5]: 7/8
- REGRESSION COMPLETE (Number/Total) [1, 5]: 7/8

Compound: O=NN(CCCl)C(=O)NCCCl [BCNU]
- "CURES" (Number/Total) [1, 5]: 0/8
- REGRESSION 50+%-PARTIAL (Number/Total) [1, 5]: 0/8
- REGRESSION COMPLETE (Number/Total) [1, 5]: 0/8

Compound: Cc1c2oc3c(C)ccc(C(=O)N[C@@H]4C(=O)N[C@H](C(C)C)C(=O)N5CCC[C@H]5C(=O)N(C)CC(=O)N(C)[C@@H](C(C)C)C(=O)O[C@@H]4C)c3nc-2c(C(=O)N[C@@H]2C(=O)N[C@H](C(C)C)C(=O)N3CCC[C@H]3C(=O)N(C)CC(=O)N(C)[C@@H](C(C)C)C(=O)O[C@@H]2C)c(N)c1=O [DACTINOMYCIN, Dactinomycin] (I: T[dV]P[Sar][NMeV] / II: T[dV]P[Sar][NMeV]; ester I:1-I:C, II:1-II:C; linker I:N-II:N via Actinocin(9to1))
- 5 ILS* (increased life span) (ADVANCED P388 LEUKEMIA; 0.15 Mg/Kg/Inj.): 95%
- 60 DAY "CURES" (ADVANCED P388 LEUKEMIA; 0.15 Mg/Kg/Inj.): 0
- SURVIAL TIME MEDIAN (ADVANCED P388 LEUKEMIA; 0.15 Mg/Kg/Inj.): 19.5 days
- 5 ILS* (increased life span) (P388 leukemia; 0.05 Mg/Kg/Inj.): 180%
- 60 DAY "CURES" (P388 leukemia; 0.05 Mg/Kg/Inj.): 0%
- SURVIAL TIME MEDIAN (P388 leukemia; 0.05 Mg/Kg/Inj.): 28 days
- 5 ILS* (increased life span) (P388 leukemia; 0.1 Mg/Kg/Inj.): 115%
- 60 DAY "CURES" (P388 leukemia; 0.1 Mg/Kg/Inj.): 12%
- SURVIAL TIME MEDIAN (P388 leukemia; 0.1 Mg/Kg/Inj.): 21.5 days

Compound: CNNCc1ccc(C(=O)NC(C)C)cc1 [PROCARBAZINE]
- "CURES" (Number/Total) ([1]; schedule days 12-20): 0/10
- REGRESSION 50+%-PARTIAL (Number/Total) ([1]; schedule days 12-20): 0/10
- REGRESSION COMPLETE (Number/Total) ([1]; schedule days 12-20): 0/10

Compound: O=c1[nH]cc(F)c(=O)[nH]1 [FLUOROURACIL]
- "CURES" (Number/Total) ([1]; schedule days 12,16,20,24): 0/10
- REGRESSION 50+%-PARTIAL (Number/Total) ([1]; schedule days 12,16,20,24): 8/10
- REGRESSION COMPLETE (Number/Total) ([1]; schedule days 12,16,20,24): 5/10
